Measured values taken from PMC7345279 (Antibiotics, 2020).
“And” between values parts separate entries of the source, which are not always exact repeats. Equal values may be shown once. Read-outs that look alike come from different tables or passages of the source.

Experiments:
[1] = test system: plasma proteins; conditions: cited from earlier work
[2] = Unbound fraction / protein binding of FLU in pooled plasma, alone and with a second drug (ultrafiltration, LC-MS/MS); conditions: human, plasma
[3] = test system: human plasma proteins; assay: as above; conditions: for FLU bound %: Pooled Plasma; for %Unbound / Measured Unbound Conc in Plasma / Measured Total Conc in Plasma: pooled plasma, alone, listed as FLU alone
[4] = test system: α-1-acid glycoprotein (AGP); assay: Binding of FLU to AGP solutions (0.9 and […]), alone and with IMA (ultrafiltration, LC-MS/MS); conditions: for % Unb / Total conc / Unb Conc: alone
[5] = target: HSA (Homo sapiens, UniProt P02768); assay: Binding of FLU to HSA solutions (40 and 25 g/L), alone and with anticancer agents (ultrafiltration, LC-MS/MS); conditions: for % Unb / Total conc / Unb Conc: alone
Sequence of HSA (P02768 25-609): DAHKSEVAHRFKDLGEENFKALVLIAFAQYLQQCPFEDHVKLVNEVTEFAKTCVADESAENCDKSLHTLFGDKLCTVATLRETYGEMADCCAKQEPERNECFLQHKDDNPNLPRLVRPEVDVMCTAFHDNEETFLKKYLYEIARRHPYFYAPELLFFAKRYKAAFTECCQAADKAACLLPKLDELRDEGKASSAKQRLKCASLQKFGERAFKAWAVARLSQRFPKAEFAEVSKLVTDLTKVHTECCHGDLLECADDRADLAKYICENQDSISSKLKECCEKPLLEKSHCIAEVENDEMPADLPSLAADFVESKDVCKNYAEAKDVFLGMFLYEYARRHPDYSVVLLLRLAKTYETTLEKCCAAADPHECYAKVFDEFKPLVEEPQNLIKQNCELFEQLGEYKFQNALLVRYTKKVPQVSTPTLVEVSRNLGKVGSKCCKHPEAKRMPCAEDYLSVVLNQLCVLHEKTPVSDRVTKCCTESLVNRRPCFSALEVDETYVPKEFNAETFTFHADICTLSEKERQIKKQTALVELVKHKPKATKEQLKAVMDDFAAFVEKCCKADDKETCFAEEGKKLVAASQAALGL

O=c1[nH]cc(F)c(=O)[nH]1 [5-FU, 5-fluorouracil]
protein binding ([1]; ref 63): 8–12%

Cc1onc(-c2c(F)cccc2Cl)c1C(=O)N[C@@H]1C(=O)N2[C@@H]1SC(C)(C)[C@@H]2C(=O)O [FLU, Flucloxacillin]
binding to plasma proteins ([1]; healthy patients): 95–97% | typical unbound fraction ([1]; patients with normal HSA (>42 g/L)): 3–5% | bound to plasma proteins ([1]; ref 13, 17, 38): more than 95% | protein binding of FLU in other studies ([1]; ref 36): 95% | protein binding of FLU in other studies ([1]; ref 38): 93% | fraction unbound at 30 min, 0.2 µg/mL ([2]; %Unbound, pooled plasma, FLU 0.2 µg/mL, alone): 0.0066 | fraction unbound at 30 min, 20 µg/mL ([2]; %Unbound, pooled plasma, FLU 20 µg/mL, alone): 0.0059 | fraction unbound at 30 min ([2]; protein binding of FLU, spiked pooled plasma, 37 °C, 30 min, range over tested FLU concentrations): 0.0059 to 0.0098 | FLU bound % ([3]; FLU 0.2 µg/mL): 99.11% | FLU bound % ([3]; FLU 20 µg/mL): 98.85% | %Unbound ([3]; FLU 0.2 µg/mL): 0.7% and 0.78% | Measured Unbound Conc in Plasma ([3]; FLU 0.2 µg/mL): 0.0016 µg/mL and 0.0023 µg/mL | %Unbound ([3]; FLU 20 µg/mL): 0.98% and 0.76% and 0.73% | Measured Unbound Conc in Plasma ([3]; FLU 20 µg/mL): 0.1275 µg/mL and 0.21 µg/mL and 0.1766 µg/mL and 0.152 µg/mL | Measured Total Conc in Plasma ([3]; FLU spiked 0.2 µg/mL): 0.24 µg/mL and 0.23 µg/mL and 0.28 µg/mL | Measured Total Conc in Plasma ([3]; FLU spiked 20 µg/mL): 21.76 µg/mL and 21.18 µg/mL and 23.09 µg/mL and 20.722 µg/mL | % Unb ([4]; AGP 0.9 g/L, FLU 0.2 µg/mL): 39.08% | Total conc ([4]; AGP 0.9 g/L, FLU 0.2 µg/mL): 0.261 µg/mL | Unb Conc ([4]; AGP 0.9 g/L, FLU 0.2 µg/mL): 0.1019 µg/mL | % Unb ([4]; AGP 0.9 g/L, FLU 20 µg/mL): 22.11% | Total conc ([4]; AGP 0.9 g/L, FLU 20 µg/mL): 21.060 µg/mL | Unb Conc ([4]; AGP 0.9 g/L, FLU 20 µg/mL): 4.6563 µg/mL | % Unb ([4]; AGP […], FLU 0.2 µg/mL): 32.04% | Total conc ([4]; AGP […], FLU 0.2 µg/mL): 0.266 µg/mL | Unb Conc ([4]; AGP […], FLU 0.2 µg/mL): 0.0852 µg/mL | % Unb ([4]; AGP […], FLU 20 µg/mL): 20.62% | Total conc ([4]; AGP […], FLU 20 µg/mL): 20.745 µg/mL | Unb Conc ([4]; AGP […], FLU 20 µg/mL): 4.2773 µg/mL | FLU bound % ([4]; AGPs (0.9 g/l), FLU 0.2 µg/mL): 60.92% | FLU bound % ([4]; AGPs ([…]), FLU 0.2 µg/mL): 67.96% | FLU bound % ([4]; AGPs ([…]), FLU 20 µg/mL): 79.38% | FLU bound % ([5]; Albumin (25 g/l), FLU 0.2 µg/mL): 94.91% | FLU bound % ([5]; Albumin (25 g/l), FLU 20 µg/mL): 93.49% | FLU bound % ([5]; Albumin (40 g/l), FLU 0.2 µg/mL): 94.39% | FLU bound % ([5]; Albumin (40 g/l), FLU 20 µg/mL): 93.98% | % Unb ([5]; HSA 25 g/L, FLU 0.2 µg/mL): 5.09% | Total conc ([5]; HSA 25 g/L, FLU 0.2 µg/mL): 0.232 µg/mL | Unb Conc ([5]; HSA 25 g/L, FLU 0.2 µg/mL): 0.012 µg/mL | % Unb ([5]; HSA 25 g/L, FLU 20 µg/mL): 6.51% | Total conc ([5]; HSA 25 g/L, FLU 20 µg/mL): 18.214 µg/mL | Unb Conc ([5]; HSA 25 g/L, FLU 20 µg/mL): 1.182 µg/mL | % Unb ([5]; HSA 40 g/L, FLU 0.2 µg/mL): 5.61% | Total conc ([5]; HSA 40 g/L, FLU 0.2 µg/mL): 0.197 µg/mL | Unb Conc ([5]; HSA 40 g/L, FLU 0.2 µg/mL): 0.011 µg/mL | % Unb ([5]; HSA 40 g/L, FLU 20 µg/mL): 6.02% | Total conc ([5]; HSA 40 g/L, FLU 20 µg/mL): 16.04 µg/mL | Unb Conc ([5]; HSA 40 g/L, FLU 20 µg/mL): 0.966 µg/mL | fraction unbound at 30 min ([5]; human): 0.0561 to 0.0602

Cc1ccc(NC(=O)c2ccc(CN3CCN(C)CC3)cc2)cc1Nc1nccc(-c2cccnc2)n1 [IMA, imatinib]
bound to human plasma proteins ([1]; ref 54): 95%
